Test results reported in patent US20070213359A1 (ACADIA Pharmaceuticals Inc., priority 2005, published 2007).
Like-named read-outs stand apart in the source and are kept apart here.

Biological target: Ghrelin receptor (Homo sapiens, UniProt Q92847)
Assay: Receptor Selection and Amplification Technology (R-SAT) assay
Type: cell-based
Parameters: expressed in transfected cells; host or cells: NIH3T3
Settings: for IC50: '—' not defined (nd used separately), read-out: RSAT pIC50 (converted); for Emax: read-out: RSAT Eff(%)
[1] = negative logarithm of ligand concentration causing 50% inhibition of constitutive receptor response, transfected NIH3T3 cells
[2] = percent inhibition at saturating ligand, normalized to reference ligand Substance P analog = 100%

Chain of Ghrelin receptor (Q92847 whole entry): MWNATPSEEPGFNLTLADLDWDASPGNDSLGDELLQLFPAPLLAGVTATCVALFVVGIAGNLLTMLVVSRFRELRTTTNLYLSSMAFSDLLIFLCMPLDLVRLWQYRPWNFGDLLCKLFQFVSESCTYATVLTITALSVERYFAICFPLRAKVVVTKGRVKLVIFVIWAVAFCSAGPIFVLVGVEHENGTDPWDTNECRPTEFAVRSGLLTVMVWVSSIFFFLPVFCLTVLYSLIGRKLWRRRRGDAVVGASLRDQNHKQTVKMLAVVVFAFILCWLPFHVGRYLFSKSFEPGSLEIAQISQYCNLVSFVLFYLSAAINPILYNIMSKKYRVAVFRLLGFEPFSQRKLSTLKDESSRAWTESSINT

Structure (SMILES) | IC50 [1] [nM] | Emax [2] [%] | IC50 ([…]) [nM] | Emax [%] | RSAT Eff(%) [2] [%]
CC(=O)c1cn(CCCN2CCC(Oc3cccc(Cl)c3)CC2)c2c(Br)cccc12 | 1 | 92 |  |  | 
CC(=O)c1cn(CCCN2CCCN(Cc3ccccc3Cl)CC2)c2c(C)cccc12 | 1.26 | 111 |  |  | 
COc1cccc2c(C(=O)NCc3cccc(Cl)c3)cn(CCCN3CCCN(Cc4ccc(F)cc4)CC3)c12 |  |  | 3.16 | 113 | 
COc1cccc2c(C(=O)Cc3ccccc3)cn(CCCN3C4CCC3CC(Oc3ccccc3Cl)C4)c12 (stereo not shown) |  |  | 3.98 | 129 | 
COc1cccc2c(C(=O)C3CC3)cn(CCCN3CCC4(CC3)CC(=O)c3ccccc3O4)c12 |  |  | 3.98 | 106 | 
CC(=O)c1cn(CCCN2CCCN(Cc3ccc(F)cc3)CC2)c2ncccc12 | 5.01 | 136 |  |  | 
CC(=O)c1cn(CCCN2CCCN(Cc3ccc(F)cc3)CC2)c2c(Br)cccc12 | 5.01 | 95 |  |  | 
CC(=O)c1cn(CCCN2C3CCC2CC(CCc2ccccc2)C3)c2c(C)cccc12 (stereo not shown) | 6.31 | 105 |  |  | 
CC(=O)c1cn(CCCN2CCCN(Cc3ccc(F)cc3)CC2)c2c(Cl)cccc12 | 7.94 | 115 |  |  | 
CC(=O)c1cn(CCCN2CCCN(CCc3ccccc3)CC2)c2c(Cl)cccc12 | 10 | 96 |  |  | 
CC(=O)c1cn(CCCN2CCC(Oc3cccc(Cl)c3)CC2)c2c(C)cccc12 | 10 | 96 |  |  | 
CC(=O)c1cn(CCCN2C3CCC2CC(CCc2ccccc2)C3)c2c(Cl)cccc12 (stereo not shown) | 12.6 | 109 |  |  | 
COc1cccc2c(C#N)cn(CCCN3CCCN(Cc4ccc(F)cc4)CC3)c12 | 15.8 | 109 |  |  | 
CC(=O)c1cn(CCCN2CCN(Cc3ccc(Cl)cc3Cl)CC2)c2c(C#N)cccc12 | 15.8 | 92 |  |  | 
CC(=O)c1cn(CCCN2C3CCC2CC(Oc2ccc(F)cc2)C3)c2c(Br)cccc12 (stereo not shown) | 15.8 | 81 |  |  | 
COc1cccc2c(C(=O)NCc3cccc(C)c3)cn(CCCN3C4CCC3CC(Oc3ccc(F)cc3)C4)c12 (stereo not shown) | 15.8 |  |  |  | 112
CC(=O)c1cn(CCCN2C3CCC2CC(Oc2ccc(F)cc2)C3)c2c(C)cccc12 (stereo not shown) | 20 | 98 |  |  | 
CCc1cccc2c(C(C)=O)cn(CCCN3CCCC(Cc4ccccc4Cl)C3)c12 (stereo not shown) | 20 | 87 |  |  | 
CC(=O)c1cn(CCCN2CCC(c3nc(-c4ccncc4)no3)CC2)c2c(C)cccc12 | 31.6 | 137 |  |  | 
CC(=O)c1cn(CCCN2C3CCC2CC(CCc2ccc(Cl)cc2)C3)c2c(Cl)cccc12 (stereo not shown) | 31.6 | 122 |  |  | 
CCc1cccc2c(C(C)=O)cn(CCCN3CCCN(CCc4ccccc4)CC3)c12 | 31.6 | 103 |  |  | 
COc1cccc2c(C(=O)NCc3cccc(C)c3)cn(CCCN3CCC(Oc4cccc(Cl)c4)CC3)c12 | 31.6 |  |  | 93 | 
COc1cccc2c(C(=O)NCC(C)C)cn(CCCN3CCC(Oc4cccc(Cl)c4)CC3)c12 | 31.6 |  |  | 71 | 
CC(=O)c1cn(CCCN2CCN(CCOc3ccccc3)CC2)c2c(C#N)cccc12 | 31.6 | 86 |  |  | 
CC(=O)c1cn(CCCN2CCC(c3nc(-c4cccnc4)no3)CC2)c2c(Br)cccc12 | 39.8 | 119 |  |  | 
CCc1cccc2c(C(C)=O)cn(CCCN3CCN(CCOc4ccccc4)CC3)c12 | 39.8 | 110 |  |  | 

Structure (SMILES) | IC50 [1] [nM] | Emax [2] [%] | IC50 ([…]) [nM] | Emax [%] | RSAT Eff(%) [2] [%]
CC(=O)c1cn(CCCNCCOc2ccccc2)c2c(C)cccc12 | 39.8 | 100 |  |  | 
CC(=O)c1cn(CCCN2CCCN(CCc3ccccc3)CC2)c2c(C#N)cccc12 | 39.8 | 83 |  |  | 
CCc1cccc2c(C(C)=O)cn(CCCN3CCC(c4nc(-c5ccncc5)no4)CC3)c12 | 39.8 | 121 |  |  | 
CC(=O)c1cn(CCCN2C3CCC2CC(CCc2ccc(Cl)cc2)C3)c2c(Br)cccc12 (stereo not shown) | 39.8 | 106 |  |  | 
COc1cccc2c(C(C)=O)cn(CC(C)CN3C4CCC3CC(CCc3ccccc3)C4)c12 (stereo not shown) | 50.1 |  |  | 120 | 
COc1cccc2c(C(=O)NCC(C)C)cn(CCCN3CCN(CCOc4ccc(Cl)cc4)CC3)c12 | 63.1 |  |  |  | 84
CC(=O)c1cn(CCCN2CCN(c3ncc(C(F)(F)F)cc3Cl)CC2)c2ncccc12 | 63.1 | 91 |  |  | 
CC(=O)c1cn(CCCN2CCN(c3ncc(C(F)(F)F)cc3Cl)CC2)c2c(C#N)cccc12 | 79.4 | 106 |  |  | 
COc1cccc2c(C(=O)NCC(C)C)cn(CCCN3C4CCC3CC(Oc3ccc(F)cc3)C4)c12 (stereo not shown) | 79.4 |  |  |  | 147
CC(=O)c1cn(CCCN2C3CCC2CC(CCc2ccc(Cl)cc2)C3)c2c(C)cccc12 (stereo not shown) | 100 |  |  | 50 | 
CC(=O)c1cn(CCCNCCOc2ccccc2)c2c(Cl)cccc12 | 100 | 84 |  |  | 
CC(=O)c1cn(CCCN2C3CCC2CC(Oc2ccc(F)cc2)C3)c2c(Cl)cccc12 (stereo not shown) | 100 | 87 |  |  | 
CCc1cccc2c(C(C)=O)cn(CCCN3C4CCC3CC(Oc3ccccc3Cl)C4)c12 (stereo not shown) | 100 | 101 |  |  | 
O=C(c1cn(CCCN2CCCN(Cc3ccc(F)cc3)CC2)c2ncccc12)C(F)(F)F | 100 | 83 |  |  | 
CCCCC(=O)c1cn(CCCN2CCC(Oc3ccc(F)cc3)CC2)c2ccc(OC)cc12 | 100 |  |  | 91 | 
CCCOC1CCN(CCCn2cc(C(=O)CC(C)C)c3ccccc32)CC1 | 126 | 81 |  |  | 
CCCCC(=O)c1cn(CCCN2C3CCC2CC(Oc2ccc(Cl)cc2)C3)c2ccc(OC)cc12 (stereo not shown) | 126 | 110 |  |  | 
COc1cccc2c(C(C)=O)cn(CCCN3CCC(O)(Cc4ccccc4)CC3)c12 | 126 | 106 |  |  | 
CCCCC(=O)c1cn(CCCN2CCC(OCCC)CC2)c2ccc(OC)cc12 | 126 | 114 |  |  | 
O=C(c1cn(CCCN2CCN(Cc3ccc(Cl)cc3Cl)CC2)c2ncccc12)C(F)(F)F | 126 | 78 |  |  | 
CCCCC(=O)c1cn(CCCN2CCC3c4cc(OC)ccc4NC3C2)c2ccc(OC)cc12 (stereo not shown) | 126 | 91 |  |  | 
COc1cccc2c(C(=O)NCC(C)C)cn(CCCN3CCC(c4nc(-c5ccncc5)no4)CC3)c12 | 158 |  |  |  | 93
CCc1cccc2c(C(C)=O)cn(CCCN3CCN(c4ncc(C(F)(F)F)cc4Cl)CC3)c12 | 158 | 90 |  |  | 
COc1ccc2c(C(C)=O)cn(CCCN3CCC(Oc4ccc(F)cc4)CC3)c2c1 | 158 | 70 |  |  | 
CCCCC(=O)c1cn(CCCN2CCC(CCCC)CC2)c2ccc(OC)cc12 | 158 | 104 |  |  | 
CCC(=O)c1cn(CCCN2CCC(c3nc4ccccc4s3)CC2)c2ccccc12 | 158 | 104 |  |  | 

Structure (SMILES) | IC50 [1] [nM] | Emax [2] [%] | IC50 ([…]) [nM] | Emax [%] | RSAT Eff(%) [2] [%]
COc1cccc2c(C(C)=O)cn(CC(C)CN3CCN(c4ncc(C(F)(F)F)cc4Cl)CC3)c12 (stereo not shown) | 158 | 95 |  |  | 
CCc1cccc2c(C(C)=O)cn(CCCNC3Cc4ccccc4C3)c12 | 158 | 98 |  |  | 
CC(C)CC(=O)c1cn(CCCN2C3CCC2CC(OC2=CC=C(Cl)CC2)C3)c2ccccc12 (stereo not shown) | 158 |  |  | 137 | 
CC(=O)c1cn(CCCN2CCN(Cc3ccc(Cl)cc3Cl)CC2)c2c(C)cccc12 | 158 | 120 |  |  | 
CC(=O)c1cn(CCCN2CCC(Oc3ccc(F)cc3)CC2)c2ccc(Br)cc12 | 158 | 75 |  |  | 
CC(C)CC(=O)c1cn(CCCN2C3CCC2CC(OCC2CC2)C3)c2ccccc12 (stereo not shown) | 158 | 129 |  |  | 
COc1ccc2c(C(C)=O)cn(CCCN3C4CCC3CC(OCC3CC3)C4)c2c1 (stereo not shown) | 158 | 93 |  |  | 
COc1cccc2c(C(C)=O)cn(CCCN3CCN(C(C)c4ccccc4)CC3)c12 (stereo not shown) | 158 | 114 |  |  | 
CCCOC1CCN(CCCn2cc(C(C)=O)c3ccccc32)CC1 |  |  | 631 | 112 | 
COc1ccccc1C1CCN(CCCn2cc(C(=O)NCc3cccc(Cl)c3)c3cccc(OC)c32)CC1 |  |  | 631 | 127 | 
COc1ccc2[nH]c3c(c2c1)CCN(CCCn1cc(C(C)=O)c2ccc(OC)cc21)C3 |  | 69 | 794 |  | 
COc1ccc2[nH]c3c(c2c1)CCN(CCCn1cc(C(C)=O)c2ccccc21)C3 |  | 76 | 794 |  | 
CCCCC1CCN(CCCCn2cc(C(C)=O)c3ccccc32)CC1 |  |  | 794 | 113 | 
COc1cccc2c(C(C)=O)cn(CCCN3CCC(N4CCOCC4)CC3)c12 |  |  | 1000 | 95 | 
CCC(=O)c1cn(CCCN2CCC(O)(Cc3ccccc3)CC2)c2ccccc12 |  |  | 1000 | 73 | 
CC(=O)c1cn(CCCN2C3CCC2CC(CC(=O)c2ccccc2)C3)c2c(Cl)cccc12 (stereo not shown) |  |  | 1580 | 85 | 
COc1cccc2c(C(C)=O)cn(CCCN3CCN(CC(=O)N4CCOCC4)CC3)c12 |  |  | 1580 | 37 | 
COc1cccc2c(C(=O)NCc3cccc(Cl)c3)cn(CCCN3CCCC(Cc4ccccc4Cl)C3)c12 (stereo not shown) |  |  | 2000 | 47 | 
COc1cccc2c(C(=O)C3CC3)cn(CCCN3C4CCC3CC(CC(=O)c3ccccc3)C4)c12 (stereo not shown) |  |  | 2000 | 86 | 
COc1cccc2c(C(=O)NCc3cccc(Cl)c3)cn(CCCN3CCC(C(=O)c4ccccc4)CC3)c12 |  |  | 2510 | 114 | 
CC(=O)c1cn(CCCN2CCC(C(=O)c3ccccc3)CC2)c2cc(Br)ccc12 |  |  | 2510 | 36 | 
CCCOC1CCN(CCn2cc(C(C)=O)c3ccccc32)CC1 |  |  | 3160 | 40 | 
CCOC(=O)C1CCN(CCn2cc(C(C)=O)c3ccccc32)CC1 |  |  | 3980 | 72 | 
COc1ccccc1C1CCN(CCn2cc(C(C)=O)c3ccccc32)CC1 |  |  | 5010 | 44 | 
CCOC(=O)C1CCN(CCCn2cc(C(=O)C(F)(F)F)c3ccccc32)CC1 |  |  | 5010 | 64 | 
